Measured values published in patent US20260207578A1, “COMPOUND BASED ON SULFUR/OXYGEN SUBSTITUTED GLUTARIMIDE-BASED ISOINDOLINONE SKELETON AND USE THEREOF” (Gluetacs Therapeutics (Shanghai) Co., LTD., priority 2022, published 2026).

Assays:
CAL-62 = assay: Half inhibitory concentration (IC50) against tumor cells, Cell Counting Kit-8; format: cell-based; conditions: Homo sapiens, CCK-8, 96 h treatment, read-out: inhibitory activity (IC50, nM) against tumor cells proliferation
Protocol: (§1) The tumor cells used herein were cultured in a cell culture medium listed in table A at 37° C. in an incubator with 5% CO2.
(§2) After the cells were treated with the compounds of the present disclosure for a period of time, the cell viability detection reagent was added to the culture medium for cell viability assessment according to the instructions provided with the CCK-8 kit. […] The growth inhibition of the compounds of the present disclosure on cells was plotted by Prism Graphpad software, and the IC50 values of the compounds of the present disclosure were calculated therefrom.

CCRF-CEM = assay: as above; format: cell-based; conditions: Homo sapiens, CCK-8, 96 h treatment, read-out: inhibitory activity (IC50, nM) against tumor cells proliferation
Protocol: as §1, §2

[1] = biological target: T1, human Cereblon WT GST-tagged protein (Homo sapiens, UniProt Q96SW2); assay: CRBN-binding affinity, HTRF (CEREBLON BINDING kit); conditions: displacement of Thalidomide-Re reagent, 3 hours at room temperature
T1 construct: purchased CISBIO 64BDCRBNPEH
T1 sequence (Q96SW2 whole entry): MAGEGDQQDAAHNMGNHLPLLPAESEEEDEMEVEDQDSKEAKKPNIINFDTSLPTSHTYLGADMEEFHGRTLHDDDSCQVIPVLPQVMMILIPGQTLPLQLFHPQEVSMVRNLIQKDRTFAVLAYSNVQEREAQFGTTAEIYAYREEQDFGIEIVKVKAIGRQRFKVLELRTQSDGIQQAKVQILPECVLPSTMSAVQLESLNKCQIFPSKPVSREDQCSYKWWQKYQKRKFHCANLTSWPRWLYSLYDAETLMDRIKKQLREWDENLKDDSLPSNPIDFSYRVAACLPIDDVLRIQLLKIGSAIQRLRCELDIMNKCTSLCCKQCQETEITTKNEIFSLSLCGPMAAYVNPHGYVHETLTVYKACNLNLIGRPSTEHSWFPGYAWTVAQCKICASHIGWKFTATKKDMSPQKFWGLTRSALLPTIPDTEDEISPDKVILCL
Outline: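 HTRF competition format: compound, GST-tagged wild-type human Cereblon, Thalidomide-Re tracer and GST Eu antibody were combined in PROTAC binding buffer. Binding was derived from emission at 620 nm relative to blank and solvent control wells.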

GSPT1 = biological target: T2, GSPT1 (Homo sapiens, UniProt P15170+Q96SW2); assay: Western-blot assay, substrate protein in hPBMCs; format: cell-based; conditions: hPBMC cells, 24 hours, tested at 50 nM and 500 nM, table does not say which
T2 construct: endogenous in cells; host or cells: human PBMCs (Milecell Biotechnologies)
T2 sequence (P15170 whole entry): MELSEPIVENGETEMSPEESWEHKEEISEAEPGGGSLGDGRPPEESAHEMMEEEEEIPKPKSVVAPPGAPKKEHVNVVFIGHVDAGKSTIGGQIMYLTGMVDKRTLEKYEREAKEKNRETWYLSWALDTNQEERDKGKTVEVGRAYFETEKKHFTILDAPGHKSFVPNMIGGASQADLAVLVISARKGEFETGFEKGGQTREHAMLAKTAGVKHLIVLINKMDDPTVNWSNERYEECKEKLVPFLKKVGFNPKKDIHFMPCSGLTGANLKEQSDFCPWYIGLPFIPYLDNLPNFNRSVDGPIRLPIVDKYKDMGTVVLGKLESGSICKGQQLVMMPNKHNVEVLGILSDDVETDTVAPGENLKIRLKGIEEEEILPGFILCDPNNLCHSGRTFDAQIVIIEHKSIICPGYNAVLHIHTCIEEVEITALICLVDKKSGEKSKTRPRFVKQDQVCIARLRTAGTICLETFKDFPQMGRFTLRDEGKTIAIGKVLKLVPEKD
T2 sequence (Q96SW2 whole entry): as the sequence (Q96SW2 whole entry) above
T2 sequence (Q16531 whole entry partner): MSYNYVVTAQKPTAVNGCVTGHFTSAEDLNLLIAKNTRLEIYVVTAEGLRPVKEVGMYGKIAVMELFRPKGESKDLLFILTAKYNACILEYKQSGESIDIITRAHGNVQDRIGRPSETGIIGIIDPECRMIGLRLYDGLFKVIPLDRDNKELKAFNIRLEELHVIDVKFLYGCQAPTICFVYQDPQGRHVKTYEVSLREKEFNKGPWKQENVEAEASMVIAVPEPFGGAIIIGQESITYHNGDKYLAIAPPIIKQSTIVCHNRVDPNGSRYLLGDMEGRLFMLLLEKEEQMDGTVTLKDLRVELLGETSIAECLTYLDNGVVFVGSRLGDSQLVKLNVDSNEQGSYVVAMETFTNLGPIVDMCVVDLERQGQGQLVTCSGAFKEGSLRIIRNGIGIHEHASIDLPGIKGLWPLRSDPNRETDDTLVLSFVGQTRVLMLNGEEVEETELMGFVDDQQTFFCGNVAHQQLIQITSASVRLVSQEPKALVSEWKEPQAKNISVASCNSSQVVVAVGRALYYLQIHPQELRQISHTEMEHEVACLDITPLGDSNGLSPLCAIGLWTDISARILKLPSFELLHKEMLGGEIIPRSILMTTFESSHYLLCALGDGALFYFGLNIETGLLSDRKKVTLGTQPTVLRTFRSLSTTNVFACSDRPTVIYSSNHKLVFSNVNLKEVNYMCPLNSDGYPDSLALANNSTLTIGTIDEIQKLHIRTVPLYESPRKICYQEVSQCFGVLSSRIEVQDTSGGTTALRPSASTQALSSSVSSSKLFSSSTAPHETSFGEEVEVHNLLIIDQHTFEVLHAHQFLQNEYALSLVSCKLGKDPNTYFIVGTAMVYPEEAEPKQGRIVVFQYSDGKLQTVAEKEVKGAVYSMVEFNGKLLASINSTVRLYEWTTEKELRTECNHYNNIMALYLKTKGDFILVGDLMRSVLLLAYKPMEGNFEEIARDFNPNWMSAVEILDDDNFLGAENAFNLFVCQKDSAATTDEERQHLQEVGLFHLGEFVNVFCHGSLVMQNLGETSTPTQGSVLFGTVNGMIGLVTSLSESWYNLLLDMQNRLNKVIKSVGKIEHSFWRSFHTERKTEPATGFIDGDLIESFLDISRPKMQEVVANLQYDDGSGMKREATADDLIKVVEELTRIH
Outline: (§3)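 Steps: treat hPBMCs 24 h; lyse on ice in RIPA with phosphatase inhibitors; quantify protein by BCA; denature at 95 °C and blot. Remaining protein (%) is the target/internal-control band ratio, normalised; degradation rate is its complement.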

Wee1 = biological target: T3, Wee1 (Homo sapiens, UniProt P30291+Q96SW2); assay: Western-blot assay, substrate protein in hPBMCs; format: cell-based; conditions: hPBMC cells, 24 hours, tested at 50 nM and 500 nM, table does not say which
T3 construct: endogenous in cells; host or cells: human PBMCs (Milecell Biotechnologies)
T3 sequence (P30291 whole entry): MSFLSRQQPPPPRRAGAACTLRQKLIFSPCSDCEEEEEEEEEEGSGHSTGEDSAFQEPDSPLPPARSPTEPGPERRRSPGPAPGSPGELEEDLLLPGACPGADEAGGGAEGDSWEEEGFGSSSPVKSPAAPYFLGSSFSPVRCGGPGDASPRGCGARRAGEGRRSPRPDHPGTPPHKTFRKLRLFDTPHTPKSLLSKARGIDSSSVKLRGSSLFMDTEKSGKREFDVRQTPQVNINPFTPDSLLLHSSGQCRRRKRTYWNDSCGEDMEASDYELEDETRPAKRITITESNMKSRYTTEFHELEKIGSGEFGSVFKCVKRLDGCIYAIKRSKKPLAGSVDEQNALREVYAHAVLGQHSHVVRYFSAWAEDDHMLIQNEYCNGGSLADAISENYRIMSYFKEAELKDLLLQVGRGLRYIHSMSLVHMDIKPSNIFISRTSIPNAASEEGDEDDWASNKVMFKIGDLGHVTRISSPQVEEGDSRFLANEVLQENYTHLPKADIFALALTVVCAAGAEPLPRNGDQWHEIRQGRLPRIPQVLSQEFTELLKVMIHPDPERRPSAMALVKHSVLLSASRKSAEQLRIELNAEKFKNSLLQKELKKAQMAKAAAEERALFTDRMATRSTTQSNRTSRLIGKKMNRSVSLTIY
T3 sequence (Q96SW2 whole entry): as the sequence (Q96SW2 whole entry) above
T3 sequence (Q16531 whole entry partner): as the sequence (Q16531 whole entry partner) above
Outline: as §3

Kasumi-1 = assay: Half inhibitory concentration (IC50) against tumor cells, Cell Counting Kit-8; format: cell-based; conditions: Homo sapiens, CCK-8, 96 h treatment, read-out: inhibitory activity (IC50, nM) against tumor cells proliferation
Protocol: as §1, §2

MV-4-11 = assay: as above; format: cell-based; conditions: Homo sapiens, MV4-11, CCK-8, 96 h treatment, read-out: inhibitory activity (IC50, nM) against tumor cells proliferation
Protocol: as §1, §2

IKZF1 = biological target: T4, IKZF1 (Homo sapiens, UniProt Q13422+Q96SW2); assay: Western-blot assay, substrate protein in hPBMCs; format: cell-based; conditions: hPBMC cells, 24 hours, tested at 50 nM and 500 nM, table does not say which
T4 construct: endogenous in cells; host or cells: human PBMCs (Milecell Biotechnologies)
T4 sequence (Q13422 whole entry): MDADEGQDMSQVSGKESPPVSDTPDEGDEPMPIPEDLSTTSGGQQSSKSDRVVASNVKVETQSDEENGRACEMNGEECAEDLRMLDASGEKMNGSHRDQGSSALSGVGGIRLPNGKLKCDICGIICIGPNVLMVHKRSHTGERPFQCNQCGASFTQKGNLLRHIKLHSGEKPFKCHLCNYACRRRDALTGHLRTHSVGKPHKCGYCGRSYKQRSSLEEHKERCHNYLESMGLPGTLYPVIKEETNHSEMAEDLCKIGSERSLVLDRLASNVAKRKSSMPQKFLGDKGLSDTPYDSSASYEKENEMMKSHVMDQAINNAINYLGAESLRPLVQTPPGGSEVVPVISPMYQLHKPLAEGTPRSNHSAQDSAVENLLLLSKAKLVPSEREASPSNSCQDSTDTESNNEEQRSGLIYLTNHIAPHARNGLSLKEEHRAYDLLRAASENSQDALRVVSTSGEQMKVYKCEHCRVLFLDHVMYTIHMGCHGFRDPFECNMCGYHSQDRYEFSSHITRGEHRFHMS
T4 sequence (Q96SW2 whole entry): as the sequence (Q96SW2 whole entry) above
T4 sequence (Q16531 whole entry partner): as the sequence (Q16531 whole entry partner) above
Outline: (§4)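 hPBMCs (1×10^6 cells/mL) exposed 24 h to compound at 50 nM and 500 nM, lysed, and probed by Western blot. Band grayscale normalized to internal control gives % protein remaining versus DMSO; DC50 from concentration-response fit at half DMSO band intensity.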

IKZF2 = biological target: T5, IKZF2 (Homo sapiens, UniProt Q96SW2+Q9UKS7); assay: Western-blot assay, substrate protein in hPBMCs; format: cell-based; conditions: hPBMC cells, 24 hours, tested at 50 nM and 500 nM, table does not say which
T5 construct: endogenous in cells; host or cells: human PBMCs (Milecell Biotechnologies)
T5 sequence (Q9UKS7 whole entry): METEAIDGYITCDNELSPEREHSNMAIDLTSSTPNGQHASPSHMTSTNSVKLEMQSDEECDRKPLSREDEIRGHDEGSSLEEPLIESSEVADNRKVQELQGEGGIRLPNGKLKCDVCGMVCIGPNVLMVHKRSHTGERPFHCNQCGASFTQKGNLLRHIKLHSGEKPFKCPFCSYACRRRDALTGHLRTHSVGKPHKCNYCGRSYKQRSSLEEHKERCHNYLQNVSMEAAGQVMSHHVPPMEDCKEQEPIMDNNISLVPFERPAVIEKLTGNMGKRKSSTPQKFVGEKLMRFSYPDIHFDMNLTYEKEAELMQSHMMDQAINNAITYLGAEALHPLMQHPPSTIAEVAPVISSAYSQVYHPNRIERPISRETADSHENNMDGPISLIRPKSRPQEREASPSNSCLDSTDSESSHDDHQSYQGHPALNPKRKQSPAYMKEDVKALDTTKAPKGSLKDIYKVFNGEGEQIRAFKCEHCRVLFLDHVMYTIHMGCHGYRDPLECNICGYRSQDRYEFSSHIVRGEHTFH
T5 sequence (Q96SW2 whole entry): as the sequence (Q96SW2 whole entry) above
T5 sequence (Q16531 whole entry partner): as the sequence (Q16531 whole entry partner) above
Outline: as §3

IKZF3 = biological target: T6, IKZF3 (Homo sapiens, UniProt Q96SW2+Q9UKT9); assay: Western-blot assay, substrate protein in hPBMCs; format: cell-based; conditions: hPBMC cells, 24 hours, tested at 50 nM and 500 nM, table does not say which
T6 construct: endogenous in cells; host or cells: human PBMCs (Milecell Biotechnologies)
Outline: as §4

CK1α = biological target: T7, CK1α (Homo sapiens, UniProt P48729+Q96SW2); assay: Western-blot assay, substrate protein in hPBMCs; format: cell-based; conditions: hPBMC cells, 24 hours, tested at 50 nM and 500 nM, table does not say which
T7 construct: endogenous in cells; host or cells: human PBMCs (Milecell Biotechnologies)
T7 sequence (P48729 whole entry): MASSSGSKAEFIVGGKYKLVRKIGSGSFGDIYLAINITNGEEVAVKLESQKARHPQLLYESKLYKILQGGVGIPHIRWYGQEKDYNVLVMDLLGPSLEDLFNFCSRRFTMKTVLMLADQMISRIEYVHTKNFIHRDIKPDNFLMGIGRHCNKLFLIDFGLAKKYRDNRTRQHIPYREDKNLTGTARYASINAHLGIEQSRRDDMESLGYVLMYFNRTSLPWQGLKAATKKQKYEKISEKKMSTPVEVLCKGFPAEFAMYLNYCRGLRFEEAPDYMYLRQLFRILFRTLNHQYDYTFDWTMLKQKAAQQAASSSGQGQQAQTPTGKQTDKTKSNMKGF
T7 sequence (Q96SW2 whole entry): as the sequence (Q96SW2 whole entry) above
T7 sequence (Q16531 whole entry partner): as the sequence (Q16531 whole entry partner) above
Outline: as §3

**Q.** How did the IC50 (CAL-62) turn out when `CC1(C)CCC(CN2CCC(Sc3ccc4c(c3)CN(C3CCC(=O)NC3=O)C4=O)CC2)=C(c2ccc(Cl)cc2)C1` (stereo not drawn) [GT-03462, 3-(5-((1-((4′-chloro-5,5-dimethyl-3,4,5,6-tetrahydro-[1,1′-biphenyl]-2-yl)methyl)piperidin-4-yl)thio)-1-oxoisoindolin-2-yl)piperidine-2,6-dione] was run?
**A.** 100 to 500 nM

**Q.** What about the IC50 (CCRF-CEM) of the same compound?
**A.** 500 to 1000 nM

**Q.** And the IC50 [1]?
**A.** 500 to 1000 nM

**Q.** What about the “substrate protein remaining %” value (GSPT1) of the same compound?
**A.** A (0%≤ substrate protein remaining % ≤80%)

**Q.** What about the “substrate protein remaining %” value (Wee1) of the same compound?
**A.** A (0%≤ substrate protein remaining % ≤80%)

**Q.** `O=C1CCC(N2Cc3cc(SC4CN(C(c5ccccc5F)c5ccccc5F)C4)ccc3C2=O)C(=O)N1` (stereo not drawn) [GT-06758, 3-(5-((1-(bis(2-fluorophenyl)methyl)azetidin-3-yl)thio)-1-oxoisoindolin-2-yl)piperidine-2,6-dione] was tested. Which IC50 (CCRF-CEM) did it give?
**A.** 50 to 100 nM

**Q.** And the IC50 (Kasumi-1)?
**A.** 100 to 500 nM

**Q.** What about the IC50 (MV-4-11) of the same compound?
**A.** 50 to 100 nM

**Q.** What about the IC50 [1] of the same compound?
**A.** < 500 nM

**Q.** And the “substrate protein remaining %” value (IKZF1)?
**A.** A (0%≤ substrate protein remaining % ≤80%)

**Q.** What about the “substrate protein remaining %” value (GSPT1) of the same compound?
**A.** A (0%≤ substrate protein remaining % ≤80%)

**Q.** What about the “substrate protein remaining %” value (IKZF2) of the same compound?
**A.** A (0%≤ substrate protein remaining % ≤80%)

**Q.** Which IC50 (MV-4-11) does the source give for `CC1(C)CCC(CN2CCC3(CC2)CC(Sc2ccc4c(c2)CN(C2CCC(=O)NC2=O)C4=O)C3)=C(c2ccc(Cl)cc2)C1` (stereo not drawn) [GT-06873, 3-(5-((7-((4′-chloro-5,5-dimethyl-3,4,5,6-tetrahydro-[1,1′-biphenyl]-2-yl)methyl)-7-azaspiro[3.5]nonan-2-yl)thio)-1-oxoisoindolin-2-yl)piperidine-2,6-dione] here?
**A.** 10 to 50 nM

**Q.** And the IC50 [1]?
**A.** 1000 to 1900 nM

**Q.** And the “substrate protein remaining %” value (IKZF1)?
**A.** A (0%≤ substrate protein remaining % ≤80%)

**Q.** What about the “substrate protein remaining %” value (IKZF3) of the same compound?
**A.** A (0%≤ substrate protein remaining % ≤80%)

**Q.** And the “substrate protein remaining %” value (CK1α)?
**A.** A (0%≤ substrate protein remaining % ≤80%)

**Q.** What about the “substrate protein remaining %” value (GSPT1) of the same compound?
**A.** A (0%≤ substrate protein remaining % ≤80%)

**Q.** What about the “substrate protein remaining %” value (IKZF2) of the same compound?
**A.** A (0%≤ substrate protein remaining % ≤80%)

**Q.** What about the “substrate protein remaining %” value (Wee1) of the same compound?
**A.** A (0%≤ substrate protein remaining % ≤80%)

**Q.** Which results are given for `O=C1CCC(N2Cc3cc(SC4CCN(Cc5ccccc5-c5ccc(Cl)cc5)CC4(F)F)ccc3C2=O)C(=O)N1` (stereo not drawn) [GT-06924, 3-(5-((1-((4′-chloro-[1,1′-biphenyl]-2-yl)methyl)-3,3-difluoropiperidin-4-yl)thio)-1-oxoisoindolin-2-yl)piperidine-2,6-dione]?
**A.** IC50 (CCRF-CEM): 500 to 1000 nM; IC50 (MV-4-11): 100 to 500 nM; substrate protein remaining % (IKZF1): A (0%≤ substrate protein remaining % ≤80%); substrate protein remaining % (CK1α): A (0%≤ substrate protein remaining % ≤80%); substrate protein remaining % (GSPT1): A (0%≤ substrate protein remaining % ≤80%)

**Q.** With `O=C1CCC(N2Cc3cc(SC4CCN(C(=O)c5ccccc5-c5ccc(Cl)cc5)CC4(F)F)ccc3C2=O)C(=O)N1` (stereo not drawn) [GT-06925, 3-(5-((1-(4′-chloro-[1,1′-biphenyl]-2-carbonyl)-3,3-difluoropiperidin-4-yl)thio)-1-oxoisoindolin-2-yl)piperidine-2,6-dione] as the compound, how does the IC50 (MV-4-11) read?
**A.** 1 to 10 nM

**Q.** And the IC50 [1]?
**A.** 500 to 1000 nM

**Q.** And the “substrate protein remaining %” value (IKZF1)?
**A.** A (0%≤ substrate protein remaining % ≤80%)

**Q.** And the “substrate protein remaining %” value (IKZF3)?
**A.** A (0%≤ substrate protein remaining % ≤80%)

**Q.** What about the “substrate protein remaining %” value (CK1α) of the same compound?
**A.** A (0%≤ substrate protein remaining % ≤80%)

**Q.** And the “substrate protein remaining %” value (GSPT1)?
**A.** A (0%≤ substrate protein remaining % ≤80%)

**Q.** What about the “substrate protein remaining %” value (IKZF2) of the same compound?
**A.** A (0%≤ substrate protein remaining % ≤80%)

**Q.** What about the “substrate protein remaining %” value (Wee1) of the same compound?
**A.** A (0%≤ substrate protein remaining % ≤80%)
